According to PubChem BioAssay AID330 (DTP/NCI, 2004):
“And” between values parts separate entries of the source, which are not always exact repeats. Equal entries are not always repeated. Toxic doses and inconclusive results are not listed.

Test system: P388 leukemia ip, CD2F1 mice, survival T/C
Test: NCI In Vivo Anticancer Drug Screen. Data for tumor model P388 Leukemia (intraperitoneal) in CD2F1 (CDF1) mice
Conditions: endpoint: median survival time, higher = longer survival
Procedure, shortened: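 Mice carrying the transplanted tumor received test compound or vehicle. Survival was recorded in each group, and the value is the treated-group measurement divided by that of the vehicle-treated control group.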

[1] = dose: 60.0 mg/kg/injection, schedule: Q01DX005 (ip), vehicle: Klucel (hydroxypropylcellulose) (HPC)
[2] = dose: 120.0 mg/kg/injection, schedule: Q01DX005 (ip), vehicle: Klucel (hydroxypropylcellulose) (HPC)
[3] = dose: 240.0 mg/kg/injection, schedule: Q01DX005 (ip), vehicle: Klucel (hydroxypropylcellulose) (HPC)
[4] = dose: 50.0 mg/kg/injection, schedule: Q01DX005 (ip), vehicle: Klucel (hydroxypropylcellulose) (HPC)
[5] = dose: 100.0 mg/kg/injection, schedule: Q01DX005 (ip), vehicle: Klucel (hydroxypropylcellulose) (HPC)
[6] = dose: 50.0 mg/kg/injection, schedule: Q01DX005 (ip), vehicle: saline with Tween-80
[7] = dose: 100.0 mg/kg/injection, schedule: Q01DX005 (ip), vehicle: saline with Tween-80
[8] = dose: 200.0 mg/kg/injection, schedule: Q01DX005 (ip), vehicle: saline with Tween-80
[9] = dose: 100.0 mg/kg/injection, schedule: Q04DX003 (ip), vehicle: saline
[10] = dose: 200.0 mg/kg/injection, schedule: Q04DX003 (ip), vehicle: saline

## CC1OCN2C(C)CCCC12 (stereo unspecified)
dose: 50.0 mg/kg/injection, schedule: Q01DX005 (ip), vehicle: saline
  T/C: 108 % of control
dose: 100.0 mg/kg/injection, schedule: Q01DX005 (ip), vehicle: saline
  T/C: 106 % of control

## O=C(O)CSCc1cc2c3ccccc3sc2c2ccccc12
[1]
  T/C: 100 % of control
[2]
  T/C: 93 % of control
[3]
  T/C: 96 % of control

## Cc1ccc(/[N+]([O-])=N/N2C(=O)c3ccccc3C2=O)cc1
dose: 25.0 mg/kg/injection, schedule: Q01DX005 (ip), vehicle: Klucel (hydroxypropylcellulose) (HPC)
  T/C: 101 % of control
[4]
  T/C: 106 % of control
[5]
  T/C: 108 % of control

## Cc1[nH]c2ccccc2c1CC[n+]1cccc(C#N)c1
dose: 3.12 mg/kg/injection, schedule: Q01DX005 (ip), vehicle: Klucel (hydroxypropylcellulose) (HPC)
  T/C: 108 % of control
dose: 6.25 mg/kg/injection, schedule: Q01DX005 (ip), vehicle: Klucel (hydroxypropylcellulose) (HPC)
  T/C: 100 % of control
dose: 12.5 mg/kg/injection, schedule: Q01DX005 (ip), vehicle: Klucel (hydroxypropylcellulose) (HPC)
  T/C: 103 % of control

## N#CCC(=O)N/N=C(\CC1(O)C(=O)Nc2c(Cl)cc(Cl)cc21)c1cccc2ccccc12 (stereo unspecified)
dose: 12.5 mg/kg/injection, schedule: Q01DX005 (ip), vehicle: saline with Tween-80
  T/C: 90 % of control
dose: 25.0 mg/kg/injection, schedule: Q01DX005 (ip), vehicle: saline with Tween-80
  T/C: 89 % of control
[6]
  T/C: 88 % of control
[7]
  T/C: 88 % of control

## Cc1c(NC(=O)C(=O)O)ccc2c(=O)cc(C(=O)O)[nH]c12
dose: 50.0 mg/kg/injection, schedule: Q01DX009 (ip), vehicle: Klucel (hydroxypropylcellulose) (HPC)
  T/C: 102 % of control and 118 % of control
dose: 100.0 mg/kg/injection, schedule: Q01DX009 (ip), vehicle: Klucel (hydroxypropylcellulose) (HPC)
  T/C: 109 % of control and 117 % of control
dose: 200.0 mg/kg/injection, schedule: Q01DX009 (ip), vehicle: Klucel (hydroxypropylcellulose) (HPC)
  T/C: 111 % of control and 124 % of control

## CCOC(=O)C(N=Nc1ccc(C)cc1Br)C(C)=O (stereo unspecified)
[6]
  T/C: 102 % of control
[7]
  T/C: 93 % of control
[8]
  T/C: 93 % of control

## COc1ccc(C(CC(=O)O)CC(=O)N(CCCl)CCCl)cc1 (stereo unspecified)
dose: 25.0 mg/kg/injection, schedule: Q01DX001 (ip), vehicle: saline
  T/C: 100 % of control and 102 % of control
dose: 25.0 mg/kg/injection, schedule: Q04DX003 (ip), vehicle: saline with Tween-80
  T/C: 101 % of control
dose: 25.0 mg/kg/injection, schedule: Q04DX003 (ip), vehicle: saline
  T/C: 102 % of control
dose: 25.0 mg/kg/injection, schedule: Q04DX003 (ip), vehicle: suspension in saline
  T/C: 106 % of control
dose: 50.0 mg/kg/injection, schedule: Q01DX001 (ip), vehicle: saline
  T/C: 100 % of control and 103 % of control
dose: 50.0 mg/kg/injection, schedule: Q04DX003 (ip), vehicle: saline with Tween-80
  T/C: 102 % of control
dose: 50.0 mg/kg/injection, schedule: Q04DX003 (ip), vehicle: saline
  T/C: 102 % of control
dose: 50.0 mg/kg/injection, schedule: Q04DX003 (ip), vehicle: suspension in saline
  T/C: 115 % of control
dose: 100.0 mg/kg/injection, schedule: Q01DX001 (ip), vehicle: saline
  T/C: 100 % of control and 103 % of control
dose: 100.0 mg/kg/injection, schedule: Q04DX003 (ip), vehicle: saline with Tween-80
  T/C: 101 % of control
[9]
  T/C: 97 % of control
dose: 100.0 mg/kg/injection, schedule: Q04DX003 (ip), vehicle: suspension in saline
  T/C: 124 % of control
dose: 200.0 mg/kg/injection, schedule: Q01DX001 (ip), vehicle: saline
  T/C: 100 % of control and 104 % of control
dose: 200.0 mg/kg/injection, schedule: Q04DX003 (ip), vehicle: saline with Tween-80
  T/C: 101 % of control
[10]
  T/C: 94 % of control
dose: 200.0 mg/kg/injection, schedule: Q04DX003 (ip), vehicle: suspension in saline
  T/C: 157 % of control

## CCOC(=O)C1(C#N)C(c2ccccc2)C(OC)(OC)C1(OC)OC (stereo unspecified)
[1]
  T/C: 100 % of control
[2]
  T/C: 102 % of control
[3]
  T/C: 99 % of control

## Nc1ncc2c(n1)Oc1cc3nc4c(=O)nc(N)nc-4oc3cc1N2
[4]
  T/C: 91 % of control
[5]
  T/C: 93 % of control

## [B-][N+](C)(C)C
[6]
  T/C: 98 % of control
[7]
  T/C: 98 % of control

## O=C1c2cccc(O)c2C(=O)c2c1cc(CO)c(-c1c(CO)cc3c(c1O)C(=O)c1c(O)cccc1C3=O)c2O
dose: 3.75 mg/kg/injection, schedule: Q01DX005 (ip), vehicle: Klucel (hydroxypropylcellulose) (HPC)
  T/C: 98 % of control
dose: 7.5 mg/kg/injection, schedule: Q01DX005 (ip), vehicle: Klucel (hydroxypropylcellulose) (HPC)
  T/C: 100 % of control
dose: 15.0 mg/kg/injection, schedule: Q01DX005 (ip), vehicle: Klucel (hydroxypropylcellulose) (HPC)
  T/C: 99 % of control

## O=C(NC1C=Nc2ccc([N+](=O)[O-])cc2NC1=O)c1ccc(Cl)cc1 (stereo unspecified)
[1]
  T/C: 91 % of control
[2]
  T/C: 93 % of control
[3]
  T/C: 92 % of control

## COc1cc(OC)c(OC)cc1/C=C\c1nccc2ccccc12
dose: 50.0 mg/kg/injection, schedule: Q01DX009 (ip), vehicle: saline with Tween-80
  T/C: 99 % of control
dose: 100.0 mg/kg/injection, schedule: Q01DX009 (ip), vehicle: saline with Tween-80
  T/C: 96 % of control
dose: 200.0 mg/kg/injection, schedule: Q01DX009 (ip), vehicle: saline with Tween-80
  T/C: 96 % of control

## O=C1C2CC=C3CCCC3C2C(=O)C2CC=C3CCCC3C12 (stereo unspecified)
dose: 7.5 mg/kg/injection, schedule: Q01DX009 (ip), vehicle: saline with Tween-80
  T/C: 105 % of control
dose: 15.0 mg/kg/injection, schedule: Q01DX009 (ip), vehicle: saline with Tween-80
  T/C: 102 % of control
dose: 30.0 mg/kg/injection, schedule: Q01DX009 (ip), vehicle: saline with Tween-80
  T/C: 106 % of control

## N#Cc1ccc(OC(=O)Nc2ccccc2Cl)cc1
dose: 60.0 mg/kg/injection, schedule: Q01DX005 (ip), vehicle: saline with Tween-80
  T/C: 94 % of control
dose: 120.0 mg/kg/injection, schedule: Q01DX005 (ip), vehicle: saline with Tween-80
  T/C: 95 % of control
dose: 240.0 mg/kg/injection, schedule: Q01DX005 (ip), vehicle: saline with Tween-80
  T/C: 86 % of control

## Cn1c2nc(-[n+]3ccc(-c4ccccc4)cc3)nc-2c([O-])n(C)c1=O
[9]
  T/C: 99 % of control
[10]
  T/C: 89 % of control

## CN(C)P1(=O)OCC(C(C)(C)C)CN1c1ccccc1 (stereo unspecified)
dose: 100.0 mg/kg/injection, schedule: Q04DX003 (ip), vehicle: Klucel (hydroxypropylcellulose) (HPC)
  T/C: 97 % of control
dose: 200.0 mg/kg/injection, schedule: Q04DX003 (ip), vehicle: Klucel (hydroxypropylcellulose) (HPC)
  T/C: 97 % of control

## CC(=O)OCC12C=CC(O1)C1C(=O)OC(=O)C12 (stereo unspecified)
[6]
  T/C: 94 % of control
[7]
  T/C: 88 % of control

## NC1=NC(=O)C(N=O)C(=O)N1 (stereo unspecified)
dose: 100.0 mg/kg/injection, schedule: Q04DX002 (ip), vehicle: saline with Tween-80
  T/C: 99 % of control
dose: 200.0 mg/kg/injection, schedule: Q04DX002 (ip), vehicle: saline with Tween-80
  T/C: 107 % of control
dose: 400.0 mg/kg/injection, schedule: Q04DX002 (ip), vehicle: saline with Tween-80
  T/C: 106 % of control

## CC(=O)N1C(=O)CC23c4ccccc4C(=O)N2CCCN13 (stereo unspecified)
[6]
  T/C: 99 % of control
[7]
  T/C: 106 % of control
[8]
  T/C: 99 % of control

## COC(=O)C12OCC34C(CC5C(C)C6=CC(=O)OC6=CC5(C)C3C(O)C1O)OC(=O)C(O)C24 (stereo unspecified)
dose: 0.63 mg/kg/injection, schedule: Q01DX005 (ip), vehicle: Klucel (hydroxypropylcellulose) (HPC)
  T/C: 150 % of control
dose: 1.25 mg/kg/injection, schedule: Q01DX005 (ip), vehicle: Klucel (hydroxypropylcellulose) (HPC)
  T/C: 169 % of control

## CCOc1cc(CN2CCN(CCO)CC2)c(O)c(CN2CCN(CCO)CC2)c1
dose: 60.0 mg/kg/injection, schedule: Q01DX005 (ip), vehicle: water
  T/C: 97 % of control
dose: 120.0 mg/kg/injection, schedule: Q01DX005 (ip), vehicle: water
  T/C: 103 % of control
dose: 240.0 mg/kg/injection, schedule: Q01DX005 (ip), vehicle: water
  T/C: 104 % of control

## c1cnc2n[se]nc2c1
dose: 6.25 mg/kg/injection, schedule: Q04DX002 (ip), vehicle: saline
  T/C: 113 % of control
dose: 12.5 mg/kg/injection, schedule: Q04DX002 (ip), vehicle: saline
  T/C: 97 % of control

## C1CN2CCC1C1(C2)SSC2(CN3CCC2CC3)S1 (stereo unspecified)
dose: 6.25 mg/kg/injection, schedule: Q01DX009 (ip), vehicle: saline
  T/C: 100 % of control
dose: 12.5 mg/kg/injection, schedule: Q01DX009 (ip), vehicle: saline
  T/C: 95 % of control
dose: 25.0 mg/kg/injection, schedule: Q01DX009 (ip), vehicle: saline
  T/C: 95 % of control
